Reference: publication PMC5218480 (PLoS ONE, 2017)

Tested on: MV-4-11 cells
Experiment: Gene expression microarray analysis (Affymetrix PrimeView) and GSEA
Format: cell-based, human
Set-up: RFU PODN (11730768_x_at) / Fold change /veh PODN (11730768_x_at) / RFU LINC00158 (11744669_a_at) / Fold change /veh LINC00158 (11744669_a_at) / RFU DUSP10 (11751237_a_at) / Fold change /veh DUSP10 (11751237_a_at) / RFU ID3 (11757404_x_at) / Fold change /veh ID3 (11757404_x_at) / RFU PLEKHG5 (11737974_s_at) / Fold change /veh PLEKHG5 (11737974_s_at) / RFU LRRC4B (11730491_at) / Fold change /veh LRRC4B (11730491_at) / RFU GIMAP4 (11747438_a_at) / Fold change /veh GIMAP4 (11747438_a_at) / RFU KRT8 (11758183_x_at) / Fold change /veh KRT8 (11758183_x_at) / RFU CNN1 (11734310_a_at) / Fold change /veh CNN1 (11734310_a_at) / RFU VPS37D (11726825_at) / Fold change /veh VPS37D (11726825_at) / RFU C10orf10 (11716522_x_at) / Fold change /veh C10orf10 (11716522_x_at) / RFU KIR2DL2 /// KIR2DL4 /// KIR2DL5A /// KIR2DL5B /// KIR2DS1 /// KIR2DS2 /// KIR2DS3 /// KIR2DS4 /// KIR3DL3 /// KIR3DL3 /// KIR3DS1 (11738374_at) / Fold change /veh KIR2DL2 /// KIR2DL4 /// KIR2DL5A /// KIR2DL5B /// KIR2DS1 /// KIR2DS2 /// KIR2DS3 /// KIR2DS4 /// KIR3DL3 /// KIR3DL3 /// KIR3DS1 (11738374_at) / RFU C1QL1 (11718748_at) / Fold change /veh C1QL1 (11718748_at) / RFU TMPRSS4 (11747572_a_at) / Fold change /veh TMPRSS4 (11747572_a_at) / RFU HAMP (11756126_x_at) / Fold change /veh HAMP (11756126_x_at) / RFU RNFT2 (11725882_a_at) / Fold change /veh RNFT2 (11725882_a_at) / RFU NR4A2 (11747474_a_at) / Fold change /veh NR4A2 (11747474_a_at) / RFU ABCC12 (11746883_a_at) / Fold change /veh ABCC12 (11746883_a_at) / RFU TMEM136 (11760407_x_at) / Fold change /veh TMEM136 (11760407_x_at) / RFU CLDN22 /// WWC2 (11732394_at) / Fold change /veh CLDN22 /// WWC2 (11732394_at) / RFU HLA-DPB1 (11760878_x_at) / Fold change /veh HLA-DPB1 (11760878_x_at) / RFU SPINT1 (11716480_a_at) / Fold change /veh SPINT1 (11716480_a_at) / RFU GAP43 (11754022_s_at) / Fold change /veh GAP43 (11754022_s_at) / RFU A4GNT (11735810_at) / Fold change /veh A4GNT (11735810_at) / RFU PRB3 (11715151_x_at) / Fold change /veh PRB3 (11715151_x_at) / RFU TUBB4B (11761932_at) / Fold change /veh TUBB4B (11761932_at) / RFU CAPN14 (11732068_a_at) / Fold change /veh CAPN14 (11732068_a_at) / RFU TMCC2 (11721928_a_at) / Fold change /veh TMCC2 (11721928_a_at) / RFU IRGQ (11745062_a_at) / Fold change /veh IRGQ (11745062_a_at) / RFU FAM174B (11720279_a_at) / Fold change /veh FAM174B (11720279_a_at) / RFU TMPRSS4 (11748680_a_at) / Fold change /veh TMPRSS4 (11748680_a_at) / RFU FAM212B (11763350_a_at) / Fold change /veh FAM212B (11763350_a_at) / RFU PLEKHG5 (11743358_a_at) / Fold change /veh PLEKHG5 (11743358_a_at) / RFU ZSCAN30 (11745921_a_at) / Fold change /veh ZSCAN30 (11745921_a_at) / RFU CMKLR1 (11741424_a_at) / Fold change /veh CMKLR1 (11741424_a_at) / RFU LOC101060620 /// MAPK8IP1 (11723275_at) / Fold change /veh LOC101060620 /// MAPK8IP1 (11723275_at) / RFU SPTSSB (11747773_x_at) / Fold change /veh SPTSSB (11747773_x_at) / RFU PRSS12 (11739890_at) / Fold change /veh PRSS12 (11739890_at) / RFU BIN1 (11741810_x_at) / Fold change /veh BIN1 (11741810_x_at) / RFU WNT11 (11732464_a_at) / Fold change /veh WNT11 (11732464_a_at) / RFU C10orf10 (11716521_a_at) / Fold change /veh C10orf10 (11716521_a_at) / RFU C5orf56 (11738089_at) / Fold change /veh C5orf56 (11738089_at) / RFU CYB561 (11721691_x_at) / Fold change /veh CYB561 (11721691_x_at) / RFU ANKRD19P (11752326_a_at) / Fold change /veh ANKRD19P (11752326_a_at) / RFU OR2T12 /// OR2T33 /// OR2T8 (11738714_s_at) / Fold change /veh OR2T12 /// OR2T33 /// OR2T8 (11738714_s_at) / RFU VCAN (11748164_a_at) / Fold change /veh VCAN (11748164_a_at) / RFU JSRP1 (11732532_at) / Fold change /veh JSRP1 (11732532_at) / RFU KRTAP10-11 (11738290_x_at) / Fold change /veh KRTAP10-11 (11738290_x_at) / RFU MYO3A (11730013_a_at) / Fold change /veh MYO3A (11730013_a_at) / RFU EBF3 (11725865_a_at) / Fold change /veh EBF3 (11725865_a_at) / RFU CAMK2N1 (11719241_x_at) / Fold change /veh CAMK2N1 (11719241_x_at) / RFU C5orf56 (11738088_a_at) / Fold change /veh C5orf56 (11738088_a_at) / RFU OLFML3 (11715873_a_at) / Fold change /veh OLFML3 (11715873_a_at) / RFU LOC100653217 /// NTM (11731650_a_at) / Fold change /veh LOC100653217 /// NTM (11731650_a_at) / RFU MAPK11 (11762145_a_at) / Fold change /veh MAPK11 (11762145_a_at) / RFU FIZ1 (11724087_x_at) / Fold change /veh FIZ1 (11724087_x_at) / RFU OASL (11726364_x_at) / Fold change /veh OASL (11726364_x_at) / RFU SOX15 (11748057_x_at) / Fold change /veh SOX15 (11748057_x_at) / RFU CD79A (11719716_a_at) / Fold change /veh CD79A (11719716_a_at) / RFU HIST1H1D (11736915_at) / Fold change /veh HIST1H1D (11736915_at) / RFU CASKIN2 (11723855_a_at) / Fold change /veh CASKIN2 (11723855_a_at) / RFU LOC730098 (11760151_x_at) / Fold change /veh LOC730098 (11760151_x_at) / RFU OR4N2 (11742367_at) / Fold change /veh OR4N2 (11742367_at) / RFU PRRT2 (11749266_a_at) / Fold change /veh PRRT2 (11749266_a_at) / RFU SNX32 (11753110_a_at) / Fold change /veh SNX32 (11753110_a_at) / RFU CDHR5 (11726645_a_at) / Fold change /veh CDHR5 (11726645_a_at) / RFU RCAN1 (11760418_a_at) / Fold change /veh RCAN1 (11760418_a_at) / RFU FAM167A (11723789_a_at) / Fold change /veh FAM167A (11723789_a_at) / RFU FAM26E (11764081_at) / Fold change /veh FAM26E (11764081_at) / RFU ISYNA1 (11749810_s_at) / Fold change /veh ISYNA1 (11749810_s_at) / RFU ACY1 (11761880_at) / Fold change /veh ACY1 (11761880_at) / RFU 11764098_at / Fold change /veh 11764098_at / RFU SAMD14 (11745864_x_at) / Fold change /veh SAMD14 (11745864_x_at) / RFU NPB (11741838_a_at) / Fold change /veh NPB (11741838_a_at) / RFU TMPRSS6 (11731388_a_at) / Fold change /veh TMPRSS6 (11731388_a_at) / RFU KRTAP10-2 (11738614_at) / Fold change /veh KRTAP10-2 (11738614_at) / RFU ARHGAP8 /// PRR5-ARHGAP8 (11727945_x_at) / Fold change /veh ARHGAP8 /// PRR5-ARHGAP8 (11727945_x_at) / RFU KRTAP5-7 /// NADSYN1 (11734609_at) / Fold change /veh KRTAP5-7 /// NADSYN1 (11734609_at) / RFU RASL12 (11751679_a_at) / Fold change /veh RASL12 (11751679_a_at) / RFU CDKN2B (11736163_a_at) / Fold change /veh CDKN2B (11736163_a_at) / RFU PRF1 (11729649_at) / Fold change /veh PRF1 (11729649_at) / RFU, ZNF638 /// ZNF638-IT1 / Fold change vs veh, ZNF638 /// ZNF638-IT1 / RFU, PANK3 / Fold change vs veh, PANK3 / RFU, SH3YL1 / Fold change vs veh, SH3YL1 / RFU, ZEB2 / Fold change vs veh, ZEB2 / RFU, NRIP1 / Fold change vs veh, NRIP1 / RFU, PTTG1IP / Fold change vs veh, PTTG1IP / RFU, CAPN2 / Fold change vs veh, CAPN2 / RFU, MED14 / Fold change vs veh, MED14 / RFU, SNORA58 / Fold change vs veh, SNORA58 / RFU, C1orf63 / Fold change vs veh, C1orf63 / RFU, LRRFIP1 / Fold change vs veh, LRRFIP1 / RFU, NDUFAF7 / Fold change vs veh, NDUFAF7 / RFU, SLC12A2 / Fold change vs veh, SLC12A2 / RFU, IBTK / Fold change vs veh, IBTK / RFU, ESF1 / Fold change vs veh, ESF1 / Fold change vs veh, TMEM50B / RFU, TAOK1 / Fold change vs veh, TAOK1 / RFU, ACBD3 / Fold change vs veh, ACBD3 / RFU, TMA16 / Fold change vs veh, TMA16 / RFU, RWDD3 / Fold change vs veh, RWDD3 / RFU, BCAT1 / Fold change vs veh, BCAT1 / RFU, EDEM3 / Fold change vs veh, EDEM3 / RFU, TMEM33 / Fold change vs veh, TMEM33 / RFU, WDR75 / Fold change vs veh, WDR75 / RFU, AHCTF1 / Fold change vs veh, AHCTF1 / RFU, TFRC / Fold change vs veh, TFRC / RFU, ZDHHC17 / Fold change vs veh, ZDHHC17 / RFU, NOM1 / Fold change vs veh, NOM1 / RFU, ARL8B / Fold change vs veh, ARL8B / RFU, ZBTB11 / Fold change vs veh, ZBTB11 / RFU, TAMM41 / Fold change vs veh, TAMM41 / RFU, KIAA1704 /// LOC100996395 / Fold change vs veh, KIAA1704 /// LOC100996395 / RFU, ING1 / Fold change vs veh, ING1 / RFU, TRMT61B / Fold change vs veh, TRMT61B / RFU, FUBP3 / Fold change vs veh, FUBP3 / RFU, TP53 / Fold change vs veh, TP53 / RFU, TNKS2 / Fold change vs veh, TNKS2 / RFU, ZFP14 / Fold change vs veh, ZFP14 / RFU, ACTR2 / Fold change vs veh, ACTR2 / RFU, PPP3R1 / Fold change vs veh, PPP3R1 / RFU, PIK3R1 / Fold change vs veh, PIK3R1 / RFU, HNRNPA1 / Fold change vs veh, HNRNPA1 / RFU, RNF170 / Fold change vs veh, RNF170 / RFU, ZNF28 / Fold change vs veh, ZNF28 / RFU, RNGTT / Fold change vs veh, RNGTT / RFU, OGT / Fold change vs veh, OGT / RFU, BRD1 / Fold change vs veh, BRD1 / RFU, MARS / Fold change vs veh, MARS / RFU, ZNF655 / Fold change vs veh, ZNF655 / RFU, FAHD1 / Fold change vs veh, FAHD1 / RFU, BDP1 / Fold change vs veh, BDP1 / RFU, LRRCC1 / Fold change vs veh, LRRCC1 / RFU, ARID1A / Fold change vs veh, ARID1A / RFU, ZNF146 / Fold change vs veh, ZNF146 / RFU, ZNF330 / Fold change vs veh, ZNF330 / RFU, GPN3 / Fold change vs veh, GPN3 / RFU, C9orf123 / Fold change vs veh, C9orf123 / RFU, N4BP2L2 / Fold change vs veh, N4BP2L2 / RFU, ARFIP1 / Fold change vs veh, ARFIP1 / RFU, FAM179B / Fold change vs veh, FAM179B / RFU, BCL10 / Fold change vs veh, BCL10 / RFU, UHRF1BP1L / Fold change vs veh, UHRF1BP1L / RFU, BET1 / Fold change vs veh, BET1 / RFU, CNOT2 / Fold change vs veh, CNOT2 / RFU, ZNF268 / Fold change vs veh, ZNF268 / Fold change vs veh, ZNF507 / RFU, DGCR2 / Fold change vs veh, DGCR2 / RFU, WDSUB1 / Fold change vs veh, WDSUB1 / Fold change vs veh, HSP90B1 /// MIR3652 / RFU, ADSS / Fold change vs veh, ADSS / RFU, GK / Fold change vs veh, GK / RFU, ZNF148 / Fold change vs veh, ZNF148 / RFU, TAF9 / Fold change vs veh, TAF9 / RFU, SLC1A5 / Fold change vs veh, SLC1A5 / RFU, SLMO2 / Fold change vs veh, SLMO2 / RFU, ABCC4 / Fold change vs veh, ABCC4 / RFU, LOC101060439 /// RAP1B / Fold change vs veh, LOC101060439 /// RAP1B / RFU, RFX7 / Fold change vs veh, RFX7 / RFU, GTPBP10 / Fold change vs veh, GTPBP10 / RFU, CNEP1R1 / Fold change vs veh, CNEP1R1 / RFU, BIVM-ERCC5 /// ERCC5 / Fold change vs veh, BIVM-ERCC5 /// ERCC5 / RFU, ILF3 / Fold change vs veh, ILF3 / RFU 11762660_at / Fold change /veh 11762660_at / RFU VCAN (11757783_s_at) / Fold change /veh VCAN (11757783_s_at) / RFU DDX43 (11728927_at) / Fold change /veh DDX43 (11728927_at) / RFU KRT8 (11758188_x_at) / Fold change /veh KRT8 (11758188_x_at) / RFU NKD1 (11759106_at) / Fold change /veh NKD1 (11759106_at) / RFU SRD5A1 (11742802_a_at) / Fold change /veh SRD5A1 (11742802_a_at) / RFU TPSAB1 /// TPSB2 (11721975_s_at) / Fold change /veh TPSAB1 /// TPSB2 (11721975_s_at) / RFU GSTM3 (11746129_a_at) / Fold change /veh GSTM3 (11746129_a_at) / RFU IL23R (11737362_x_at) / Fold change /veh IL23R (11737362_x_at) / RFU TMEM51 (11727254_a_at) / Fold change /veh TMEM51 (11727254_a_at) / RFU PIWIL2 (11732686_x_at) / Fold change /veh PIWIL2 (11732686_x_at) / RFU ORM1 (11744905_x_at) / Fold change /veh ORM1 (11744905_x_at) / RFU CCDC152 (11743942_at) / Fold change /veh CCDC152 (11743942_at) / RFU ECM1 (11717891_a_at) / Fold change /veh ECM1 (11717891_a_at) / RFU IL23R (11748794_a_at) / Fold change /veh IL23R (11748794_a_at) / RFU TNFAIP8L3 (11732012_x_at) / Fold change /veh TNFAIP8L3 (11732012_x_at) / RFU MBOAT4 (11741988_at) / Fold change /veh MBOAT4 (11741988_at) / RFU 11764193_at / Fold change /veh 11764193_at / RFU TMEM53 (11763286_at) / Fold change /veh TMEM53 (11763286_at) / RFU MAGEB2 (11727129_at) / Fold change /veh MAGEB2 (11727129_at) / RFU TMEM200A (11744735_a_at) / Fold change /veh TMEM200A (11744735_a_at) / RFU CCDC152 (11751479_a_at) / Fold change /veh CCDC152 (11751479_a_at) / RFU FAM211A (11726209_a_at) / Fold change /veh FAM211A (11726209_a_at) / RFU RGS16 (11746705_a_at) / Fold change /veh RGS16 (11746705_a_at) / RFU VCAN (11755009_s_at) / Fold change /veh VCAN (11755009_s_at) / RFU RHOB (11743442_s_at) / Fold change /veh RHOB (11743442_s_at) / RFU RGS16 (11720943_a_at) / Fold change /veh RGS16 (11720943_a_at) / RFU RGS16 (11720944_at) / Fold change /veh RGS16 (11720944_at) / RFU, VPS4B / Fold change vs veh, VPS4B / RFU, CREB1 / Fold change vs veh, CREB1 / RFU, DNAJC13 / Fold change vs veh, DNAJC13 / RFU, GNAQ / Fold change vs veh, GNAQ / RFU, CDK5R1 / Fold change vs veh, CDK5R1 / RFU, ZRANB3 / Fold change vs veh, ZRANB3 / RFU, CUL4A / Fold change vs veh, CUL4A / RFU, CCNY / Fold change vs veh, CCNY / RFU, UFL1 / Fold change vs veh, UFL1 / RFU, COG3 / Fold change vs veh, COG3 / RFU, DIAPH2 / Fold change vs veh, DIAPH2 / RFU, SKA2 / Fold change vs veh, SKA2 / RFU, AFF3 / Fold change vs veh, AFF3 / RFU, LMF1 / Fold change vs veh, LMF1 / RFU, IPO11 / Fold change vs veh, IPO11 / RFU, DFFB / Fold change vs veh, DFFB / RFU, FOXP1 / Fold change vs veh, FOXP1 / RFU, CARD8 / Fold change vs veh, CARD8 / RFU, STRN3 / Fold change vs veh, STRN3 / RFU, ADK / Fold change vs veh, ADK / RFU, RASSF2 / Fold change vs veh, RASSF2 / RFU, WIPF1 / Fold change vs veh, WIPF1 / RFU, LARP1B / Fold change vs veh, LARP1B / RFU, RASA1 / Fold change vs veh, RASA1 / RFU, RB1 / Fold change vs veh, RB1 / RFU, PPFIA1 / Fold change vs veh, PPFIA1 / RFU, MAT2A / Fold change vs veh, MAT2A / RFU, CCT5 / Fold change vs veh, CCT5 / RFU, WDR92 / Fold change vs veh, WDR92 / RFU, CUX1 / Fold change vs veh, CUX1 / RFU, TTC7A / Fold change vs veh, TTC7A / RFU, TMEM135 / Fold change vs veh, TMEM135 / RFU, DEPTOR / Fold change vs veh, DEPTOR / RFU, CPM / Fold change vs veh, CPM / RFU, DNAJB6 / Fold change vs veh, DNAJB6 / RFU, CACNA2D3 / Fold change vs veh, CACNA2D3 / RFU, DTX4 / Fold change vs veh, DTX4 / RFU, TFCP2 / Fold change vs veh, TFCP2 / RFU, GMCL1 /// GMCL1P1 / Fold change vs veh, GMCL1 /// GMCL1P1 / RFU, AEBP2 / Fold change vs veh, AEBP2 / RFU, SNHG1 /// SNORD22 /// SNORD25 /// SNORD26 /// SNORD27 /// SNORD28 /// SNORD29 /// SNORD31 / Fold change vs veh, SNHG1 /// SNORD22 /// SNORD25 /// SNORD26 /// SNORD27 /// SNORD28 /// SNORD29 /// SNORD31 / Fold change (Aza/veh), C12orf56 (ProbeSet 11735607_a_at) / Fold change (ACY-1035/veh), C12orf56 (ProbeSet 11735607_a_at) / Fold change (Aza/veh), FGFR1OP (ProbeSet 11751329_s_at) / Fold change (ACY-1035/veh), FGFR1OP (ProbeSet 11751329_s_at) / Fold change (Aza/veh), VPS36 (ProbeSet 11739960_a_at) / Fold change (ACY-1035/veh), VPS36 (ProbeSet 11739960_a_at) / RFU SYPL1 (11715823_x_at) / Fold change /veh SYPL1 (11715823_x_at) / RFU IGFBP7 (11715501_s_at) / Fold change /veh IGFBP7 (11715501_s_at) / RFU REEP3 (11722064_at) / Fold change /veh REEP3 (11722064_at) / RFU IGLL1 (11728026_x_at) / Fold change /veh IGLL1 (11728026_x_at): dose or concentration left out as unconfirmed
Conditions: ProbeSet 11715478_a_at; LIST B

Nc1ccc(-c2cccs2)cc1NC(=O)c1ccc2c(c1)cc(C1CC1)n2CCN1CCOCC1 [ACY-1035]
RFU, TFRC: 135.12 RFU
